Consider 29 compounds from ChEMBL document CHEMBL3877300, “Design, synthesis, docking studies and biological evaluation of novel dihydro-1,3,5-triazines as human DHFR inhibitors” (Eur J Med Chem, 2017).

Experiment [1] in a line: cells. To be noted: Homo sapiens, A549, 72 h.
Description: Antiproliferative activity against human A549 cells after 72 hrs by MTT assay
A short description of experiment [2]: Antiproliferative activity against human HL60 cells after 72 hrs by MTT assay. To be noted: HL-60, 72 h. It is filed as functional, cell-based.
Experiment [3] in a line: Antiproliferative activity against human MDA-MB-231 cells after 72 hrs by MTT assay. It counts as functional, cell-based. Conditions: MDA-MB-231, 72 h. For orientation: Tetrazolium dyes change colour on reduction, which living cells bring about.
The nature of experiment [4]: Antiproliferative activity against human HepG2 cells after 72 hrs by MTT assay. It is filed as functional, cell-based. Conditions: HepG2, 72 h.
The nature of experiment [5]: cells. To be noted: Homo sapiens, HCT-116, 72 h.
Description: Antiproliferative activity against human HCT116 cells after 72 hrs by MTT assay
The target in experiment [6] is T1, Dihydrofolate reductase (Homo sapiens, UniProt P00374).
T1 sequence (P00374 whole entry): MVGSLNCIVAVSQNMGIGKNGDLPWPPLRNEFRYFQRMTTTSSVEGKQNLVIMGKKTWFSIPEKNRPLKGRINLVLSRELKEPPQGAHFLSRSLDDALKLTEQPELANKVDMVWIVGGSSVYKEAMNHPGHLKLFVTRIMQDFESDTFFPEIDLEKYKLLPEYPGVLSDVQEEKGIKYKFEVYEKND
Kind of experiment: Inhibition of recombinant human DHFR using DHF as substrate measured every 5 sec over 6 mins in presence of NADPH by UV-Visible spectrophotometric method relative to control.

Molecules are shown by their SMILES. pIC50: −log10 of the molar value. Bounds are passed on as bounds.

With `NC1=NC2(CCOCC2)N(OCCCOc2cccc(Br)c2)C(N)=N1`, the pIC50 (commonly the IC50 on a negative log10 scale, so that one unit is a factor of ten) is 6.80 in experiment [1]; 6.25 in experiment [2]; 6.40 in experiment [3] (read-out: IC50); 6.49 in experiment [4]; 7.40 in experiment [5].

In the case of `COc1ccc(OCCCON2C(N)=NC(N)=NC23CCOCC3)cc1`, the pIC50 is 6.18 in experiment [1], 7.96 in experiment [6], 5.78 in experiment [2] and 5.82 in experiment [5].

With `NC1=NC2(CCSCC2)N(OCCCOc2cccc(Br)c2)C(N)=N1`, the pIC50 in experiment [1] is 7.30; in experiment [2], 6.70; in experiment [3] (read-out: IC50) it was 7.22; in experiment [4], 7.05; in experiment [5], 9.00.

Consider `NC1=NC2(CCOCC2)N(OCCCOc2ccc(Br)cc2)C(N)=N1`, for which the pIC50 in experiment [1] is 6.55; in experiment [6] it was 7.49; in experiment [2], 6.51; in experiment [5], 6.49.

Consider `NC1=NC2(CCOCC2)N(OCCCOc2ccccc2)C(N)=N1`, for which the pIC50 was 5.97 in experiment [1], 7.06 in experiment [6], 5.61 in experiment [2] and 5.22 in experiment [5].

Take `NC1=NC2(CCOCC2)N(OCCCOc2cc(Cl)c(Cl)cc2Cl)C(N)=N1`: the pIC50 is 6.17 in experiment [1], 7.44 in experiment [6], 5.63 in experiment [2] and 5.56 in experiment [5].

`CC(C)(C)c1ccc(OCCCON2C(N)=NC(N)=NC23CCOCC3)cc1`: the pIC50 was 6.30 in experiment [1], 8.43 in experiment [6], 6.06 in experiment [2] and 5.79 in experiment [5].

Regarding `NC1=NC2(CCCCC2)N(OCCCOc2ccc(Cl)cc2)C(N)=N1`, the pIC50 in experiment [1] is 6.00; in experiment [6], 7.31; in experiment [2], 6.24; in experiment [3] (read-out: IC50), 5.92; in experiment [4] it was 5.63; in experiment [5], 6.42.

Take `NC1=NC2(CCSCC2)N(OCCCOc2ccc(Cl)c(Cl)c2)C(N)=N1`: the pIC50 is 9.00 in experiment [1]; 6.85 in experiment [2]; 8.00 in experiment [3] (read-out: IC50); 7.15 in experiment [4]; 9.00 in experiment [5].

Turning to `COc1cccc2c1C(=O)c1c(O)c3c(c(O)c1C2=O)C[C@@](O)(C(=O)CO)C[C@@H]3O[C@H]1C[C@H](N)[C@H](O)[C@H](C)O1` [DOXORUBICIN], the pIC50 in experiment [1] was 6.92; in experiment [3] it was 6.14; in experiment [5], 6.51.

`NC1=NC2(CCOCC2)N(OCCCOc2cccc(Cl)c2Cl)C(N)=N1`: the pIC50 in experiment [1] was 7.00; in experiment [2], 6.36; in experiment [3] (read-out: IC50), 6.85; in experiment [4], 6.48; in experiment [5], 8.30.

As for `CC(C)(C)c1ccc(OCCCON2C(N)=NC(N)=NC23CCSCC3)cc1`, the pIC50 is 9.00 in experiment [1]; 6.55 in experiment [2]; 9.00 in experiment [3] (read-out: IC50); 7.15 in experiment [4]; 9.00 in experiment [5].

Turning to `NC1=NC2(CCSCC2)N(OCCCOc2cccc(Cl)c2Cl)C(N)=N1`, the pIC50 was 9.00 in experiment [1]; 7.52 in experiment [2]; 9.00 in experiment [3] (read-out: IC50); 7.30 in experiment [4]; 9.00 in experiment [5].

Take `NC1=NC2(CCSCC2)N(OCCCOc2cc(Cl)c(Cl)cc2Cl)C(N)=N1`: the pIC50 in experiment [1] was under 4.00; in experiment [2], 6.14; in experiment [3] (read-out: IC50), 6.96; in experiment [4] it was under 4.00; in experiment [5], 9.00.

Turning to `NC1=NC2(CCSCC2)N(OCCCOc2ccc(Br)cc2)C(N)=N1`, the pIC50 in experiment [1] was 6.13; in experiment [6] it was 8.19; in experiment [2], 6.46; in experiment [3] (read-out: IC50), 6.36; in experiment [4], 5.85; in experiment [5] it was 7.70.

Consider `NC1=NC2(CCOCC2)N(OCCCOc2ccc(F)cc2)C(N)=N1`, for which the pIC50 was 5.97 in experiment [1], 7.33 in experiment [6], 5.62 in experiment [2] and 5.48 in experiment [5].

Take `NC1=NC2(CCSCC2)N(OCCCOc2ccccc2Cl)C(N)=N1`: the pIC50 was 7.10 in experiment [1]; 6.41 in experiment [2]; 7.10 in experiment [3] (read-out: IC50); 7.10 in experiment [4]; 9.00 in experiment [5].

On to `Cc1cc(C)cc(OCCCON2C(N)=NC(N)=NC23CCOCC3)c1`, for which the pIC50 was 6.15 in experiment [1]; 6.14 in experiment [2]; 5.45 in experiment [3] (read-out: IC50); 6.17 in experiment [4]; 6.72 in experiment [5].

In the case of `NC1=NC2(CCOCC2)N(OCCCOc2ccccc2Cl)C(N)=N1`, the pIC50 is 5.57 in experiment [1]; 6.18 in experiment [2]; 5.84 in experiment [3] (read-out: IC50); 5.76 in experiment [4]; 7.15 in experiment [5].

Take `NC1=NC2(CCOCC2)N(OCCCOc2ccc(Cl)c(Cl)c2)C(N)=N1`: the pIC50 in experiment [1] was 6.10; in experiment [6], 8.08; in experiment [2], 5.91; in experiment [3] (read-out: IC50), 6.23; in experiment [4], 6.42; in experiment [5], 7.05.

As for `Cc1ccc(OCCCON2C(N)=NC(N)=NC23CCOCC3)cc1`, the pIC50 in experiment [1] is 5.97; in experiment [6], 7.25; in experiment [2], 5.59; in experiment [5], 5.62.

For `NC1=NC2(CCSCC2)N(OCCCOc2ccccc2Br)C(N)=N1`, the pIC50 was 7.40 in experiment [1]; 6.74 in experiment [2]; 8.00 in experiment [3] (read-out: IC50); 7.05 in experiment [4]; 9.00 in experiment [5].

For the compound `NC1=NC2(CCOCC2)N(OCCCOc2cccc(Cl)c2)C(N)=N1`, the pIC50 in experiment [1] is 6.82; in experiment [2], 6.28; in experiment [3] (read-out: IC50) it was 5.99; in experiment [4] it was 6.82; in experiment [5] it was 6.92.

For `COc1ccc(OCCCON2C(N)=NC(N)=NC23CCSCC3)cc1`, the pIC50 was 6.62 in experiment [1]; 6.30 in experiment [2]; 6.46 in experiment [3] (read-out: IC50); 6.06 in experiment [4]; 7.15 in experiment [5].

With `NC1=NC2(CCOCC2)N(OCCCOc2ccc(Cl)cc2)C(N)=N1`, the pIC50 in experiment [1] was 6.44; in experiment [6], 7.47; in experiment [2], 6.48; in experiment [5], 6.16.

For `NC1=NC2(CCOCC2)N(OCCCOc2ccccc2Br)C(N)=N1`, the pIC50 in experiment [1] was 6.80; in experiment [2] it was 6.21; in experiment [3] (read-out: IC50), 6.04; in experiment [4] it was 6.07; in experiment [5] it was 7.52.

Consider `NC1=NC2(CCSCC2)N(OCCCOc2cccc(Cl)c2)C(N)=N1`, for which the pIC50 in experiment [1] is 7.22; in experiment [2], 6.59; in experiment [3] (read-out: IC50), 6.89; in experiment [4], 7.05; in experiment [5], 9.00.

Regarding `NC1=NC2(CCSCC2)N(OCCCOc2ccc(Cl)cc2)C(N)=N1`, the pIC50 in experiment [1] is 6.24; in experiment [6], 7.74; in experiment [2], 6.37; in experiment [3] (read-out: IC50), 6.46; in experiment [4], 5.96; in experiment [5], 8.00.

In the case of `NC1=NC2(CCSCC2)N(OCCCOc2ccc(Cl)cc2Cl)C(N)=N1`, the negative-log IC50 (pIC50) was 6.68 in experiment [1]; 8.39 in experiment [6]; 6.48 in experiment [2]; 7.22 in experiment [3] (read-out: IC50); 5.86 in experiment [4]; 9.00 in experiment [5].
